Where two headings read alike, the source gives them in different places.
How the values were obtained:
PAE = assay: Apoptosis in PAE; type: cell-based, porcine
PAE cells [1] = test system: PAE cells
endothelial cells = assay: Primary screening: cell-based growth HTS and tube formation HTS (bioactivity class)
Procedure: All assays were performed in clear bottom black 96-well plates. The plates were always arranged to include a column for negative controls (column 1), a column for positive controls (column 12), and 10 columns for evaluation of 80 compounds. In order to increase stringency and avoid false positives in the HTS assays, all compounds were tested at a low final concentration of 1 μM.
In summary, 1,000 cells/well were seeded in the 96-well plates described above. Cells in columns 2-12 were seeded in 10% FBS and cells in column 1 (negative control) were seeded in 0% FBS. Small molecules (80 per plate) were added in columns 2-11 at a final concentration of 1 μM (both positive and negative controls were exposed to the same percentage of DMSO in wells containing test compounds). The fluorescence emitted by every well was measured spectrophotometrically (Infinite M200, TECAN®, Mannedorf, Switzerland) every 24 hours for 5-7 days.
In summary, 20,000 cells/well were seeded on top of 50 μl of pre-gelled GELTREX® gel matrix (Invitrogen, Carlsbad, Calif.). All cells were seeded in 10% FBS. […] Small molecules (80 per plate) were added to columns 2-11 at a final concentration of 1 μM (both positive and negative controls were exposed to the same percentage of DMSO in wells containing test compounds). Plates were incubated for 5-7 hours and automatically imaged with the help of an epifluorescence microscope (Axiovert® 200M, Zeiss) equipped with a motorized stage and AxioVision® (Zeiss) software.
For hit detection, a stringent threshold (sigma 3.5) was applied to avoid false positives.

PAE cells [2] = assay: Growth dose response (IC50) in PAE; type: cell-based, porcine; settings: read-out: Growth IC50 (M) in PAE
From the text: FIG. 6: Dose response curves were constructed for all the SMs of interest using PAE cells. Data were fitted to non-linear sigmoid curves using GraphPad Prism (GraphPad Software, Inc., La Jolla, Calif.).
Dose response curves were constructed for all the SM of interest using PAE cells. Data were fitted to non-linear sigmoid curves using GraphPad Prism (GraphPad software, Inc.).

KDR(VEGFR2) = KDR(VEGFR2) (Homo sapiens, UniProt P35968); assay: SelectScreen kinase activity profiling, KDR(VEGFR2); type: biochemical; settings: VEGFR2 receptor
From the text: To characterize the RTK inhibitory activity of the antiangiogenic SMs described herein, 36 compounds were chosen and screened using Invitrogen's SelectScreen® kinase activity profiling service (described on-line at tools.invitrogen.com/content.cfm?pageid=10413#selection). VEGFR1 and FGFR2 RTK inhibitory activities were studied. […] Overall, a small minority of the SMs tested had any substantial kinase inhibitory activity. This observation supports a mechanism of antiangiogenic action other than RTK inhibition for most of the SMs described herein.

in vitro = settings: pig
PAE cells [3] = assay: Fluorescence-release cytotoxicity assay; settings: endothelial cells
SK-ML-1 tumors [4] = assay: SK-ML-1 tumor xenograft; settings: 100 μl of 10 μM IP, three times a week for four weeks
SK-ML-1 tumors [5] = settings: positive control; cited from earlier work
A549 tumors = settings: positive control; cited from earlier work
[6] = HTS at 1 μM final concentration

KDR(VEGFR2), sequence (P35968 20-1356): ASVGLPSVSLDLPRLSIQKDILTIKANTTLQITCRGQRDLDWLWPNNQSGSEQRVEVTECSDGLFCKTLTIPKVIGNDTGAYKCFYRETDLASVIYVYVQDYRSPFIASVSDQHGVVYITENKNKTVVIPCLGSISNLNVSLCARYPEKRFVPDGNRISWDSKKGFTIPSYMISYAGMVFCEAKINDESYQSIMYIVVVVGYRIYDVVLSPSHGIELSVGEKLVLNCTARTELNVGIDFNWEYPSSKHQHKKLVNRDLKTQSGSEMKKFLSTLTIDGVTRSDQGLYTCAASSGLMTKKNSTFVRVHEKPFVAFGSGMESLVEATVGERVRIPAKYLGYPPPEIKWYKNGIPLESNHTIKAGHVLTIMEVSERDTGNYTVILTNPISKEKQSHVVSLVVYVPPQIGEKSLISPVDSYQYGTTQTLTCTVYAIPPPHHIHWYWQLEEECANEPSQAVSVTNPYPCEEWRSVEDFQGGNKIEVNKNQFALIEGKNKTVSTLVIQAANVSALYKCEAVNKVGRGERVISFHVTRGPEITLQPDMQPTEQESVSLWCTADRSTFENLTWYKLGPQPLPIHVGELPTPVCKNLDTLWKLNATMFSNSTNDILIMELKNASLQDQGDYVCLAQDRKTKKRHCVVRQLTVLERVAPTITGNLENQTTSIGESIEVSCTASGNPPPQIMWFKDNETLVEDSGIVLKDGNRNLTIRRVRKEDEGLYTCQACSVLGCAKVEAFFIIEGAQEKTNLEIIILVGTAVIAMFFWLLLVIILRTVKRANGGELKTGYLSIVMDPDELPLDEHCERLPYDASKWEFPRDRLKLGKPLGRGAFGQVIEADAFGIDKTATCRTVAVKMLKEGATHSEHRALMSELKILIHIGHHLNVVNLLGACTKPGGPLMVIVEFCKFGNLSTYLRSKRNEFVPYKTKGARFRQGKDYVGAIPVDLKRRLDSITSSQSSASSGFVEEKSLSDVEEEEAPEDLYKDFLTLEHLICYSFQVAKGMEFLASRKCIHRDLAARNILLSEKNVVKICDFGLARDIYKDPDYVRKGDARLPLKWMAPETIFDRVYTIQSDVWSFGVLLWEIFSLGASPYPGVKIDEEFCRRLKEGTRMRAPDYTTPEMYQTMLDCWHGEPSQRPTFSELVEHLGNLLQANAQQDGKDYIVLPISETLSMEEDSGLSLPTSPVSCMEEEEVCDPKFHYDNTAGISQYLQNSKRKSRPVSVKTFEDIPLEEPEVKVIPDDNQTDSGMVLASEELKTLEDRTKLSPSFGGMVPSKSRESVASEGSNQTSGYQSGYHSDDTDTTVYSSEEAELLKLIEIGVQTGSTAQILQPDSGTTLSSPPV

Question: Which “Apoptosis PAE (RFU)” value (PAE) does the source give for “zinc; 8-hydroxy-3,4,4a,5,6,7,8,8a- octahydro-2H-quinolin-1-ide-5-sulfonic acid; 5-sulfo-1,2-dihydroquinolin-8-olate [Compound 61]” here?
Answer: 1.841 RFU

Question: What about the “Cytotoxicity (%)” value (PAE cells [1]) of the same molecule?
Answer: 7.901%

Question: And the Bioactivity (endothelial cells)?
Answer: 2

Question: What does the source list for “[benzylsulfanyl(sulfoniumylidene) methyl]-(1-pyridin-2- ylethylideneamino)azanide; chlorocopper [Compound 65]”?
Answer: Apoptosis PAE (RFU) (PAE; PAE cells): 2.227 RFU; IC50 (PAE cells [2]; PAE cells): 1.09e-11 M; Bioactivity (endothelial cells; [6]): 3

Question: Which “Apoptosis PAE (RFU)” value (PAE) does the source give for `COc1ccc(CC2C(=O)NC(C)C(=O)N(C)C3C(=O)N(C)C(Cc4ccc(O)c(c4)Oc4ccc(cc4)C3O)C(=O)NC(C)C(=O)NC(C)C(=O)N2C)cc1` (stereo not drawn) [Compound 59, Bouvardin or 17,24-dihydroxy-10-(4-methoxybenzyl)-4,7,9,13,15,29-hexamethyl-22-oxa-3,6,9,12,15,29-hexaazatetracyclo-[14.12.2.2-18,21~.1~23,27~]tritriaconta-18,20,23(31),24,26,32-hexaene-2,5,8,11,14,30-hexone] here?
Answer: 6.215 RFU

Question: And the “Cytotoxicity (%)” value (PAE cells [1])?
Answer: 9.794%

Question: What about the Bioactivity (endothelial cells) of the same molecule?
Answer: 2

Question: For “3-[(2,4- dimethylphenyl)carbamoyl]naphthalen-2- olate; N-(2,4-dimethylphenyl)-3- hydroxynaphthalene-2-carboxamide; nickel(2+) [Compound 37]”, which “Apoptosis PAE (RFU)” value (PAE) is on record?
Answer: 2.037 RFU

Question: And the IC50 (PAE cells [2])?
Answer: > 1e-06 M

Question: And the Bioactivity (endothelial cells)?
Answer: 1

Question: For `CCC(=O)OCN1C(=O)C=CC1=O` [Compound 39, (2,5-dioxopyrrol-1-yl)methyl propanoate], which “RTK inhibitory activity (in words)” value (KDR(VEGFR2)) is on record?
Answer: showed RTK inhibitory activity

Question: What about the cytotoxicity (in vitro) of the same molecule?
Answer: 8.54%

Question: And the “type of inhibition (endothelial cell growth and/or tube formation)” value (“type of inhibition” below) (endothelial cells; 1 μM)?
Answer: tube formation

Question: What does the source list for “2,5-dibromo-3,6-dimethylbenzene-1,4- diol; 2,5-dibromo-3,6- dimethylcyclohexa-2,5-diene-1,4-dione [Compound 72]”?
Answer: Apoptosis PAE (RFU) (PAE): 1.368 RFU; IC50 (PAE cells [2]): 1.39e-10 M; Cytotoxicity (%) (PAE cells [1]): 13.88%; Bioactivity (endothelial cells): 3

Question: Which results are given for `O=[N+]([O-])c1ccc(S(=O)(=O)Cc2ccccc2)c([N+](=O)[O-])c1` [Compound 64, 1-benzylsulfonyl-2,4-dinitrobenzene]?
Answer: IC50 (PAE cells [2]; Sus scrofa, PAE cells): 2.79e-10 M; cytotoxicity (in words) (PAE cells [1]): without cytotoxicity; cytotoxicity (in vitro): 7.09%; type of inhibition (endothelial cell growth and/or tube formation) (endothelial cells; 1 μM): inhibited both endothelial cell growth and tube formation; type of inhibition (endothelial cell growth and/or tube formation) (endothelial cells; 1 μM, listed as NSC 122657): tube formation+growth

Question: Which results are given for “bromocopper; (dipyridin-2- ylmethylideneamino)- [methylsulfanyl(sulfoniumylidene) methyl]azanide [Compound 70]”?
Answer: Apoptosis PAE (RFU) (PAE; PAE cells): 1.021 RFU; cytotoxicity (in words) (PAE cells [3]): cytotoxic; IC50 (PAE cells [2]; PAE cells): 6.11e-12 M; Cytotoxicity (%) (PAE cells [1]): 38.53%; Bioactivity (endothelial cells; [6]): 3

Question: With `O=[As](O)(O)c1ccc(Cc2ccc([As](=O)(O)O)cc2)cc1` [Compound 69, [4-[(4-arsonophenyl)methyl]phenyl]arsonic acid] as the molecule, how does the “RTK inhibitory activity (in words)” value (KDR(VEGFR2)) read?
Answer: showed RTK inhibitory activity

Question: And the IC50 (PAE cells [2]; Sus scrofa, PAE)?
Answer: 3.84e-10 M

Question: What about the “cytotoxicity (in words)” value (PAE cells [1]) of the same molecule?
Answer: without cytotoxicity

Question: And the cytotoxicity (in vitro)?
Answer: 8.26%

Question: What about the “type of inhibition” value (endothelial cells) of the same molecule?
Answer: inhibited both endothelial cell growth and tube formation

Question: And the “inhibition of tumor growth, SK-ML-1 xenograft” value (shortened to “inhibition of tumor growth”) (SK-ML-1 tumors [4])?
Answer: potencies similar to AVASTIN®

Question: With `Cl.O=C1C(=Cc2ccccc2)C(NC2CCCCC2)c2ccccc21` (stereo not drawn) [Compound 67, 2-benzylidene-3-(cyclohexylamino)-3H-inden-1-one chloride] as the molecule, how does the “cytotoxicity (in words)” value (PAE cells [3]) read?
Answer: without cytotoxicity

Question: What about the IC50 (PAE cells [2]; Sus scrofa, PAE cells) of the same molecule?
Answer: 9.16e-11 M

Question: What about the cytotoxicity (in vitro) of the same molecule?
Answer: 7.78%

Question: What about the “type of inhibition” value (endothelial cells; 1 μM) of the same molecule?
Answer: inhibited both endothelial cell growth and tube formation

Question: What about the “type of inhibition” value (endothelial cells; 1 μM, listed as NSC 150117) of the same molecule?
Answer: tube formation+growth

Question: What about the “inhibition of tumor growth” value (SK-ML-1 tumors [4]) of the same molecule?
Answer: potencies similar to AVASTIN®

Question: Which cytotoxicity (in vitro) does the source give for `COc1cc2cc(c1Cl)N(C)C(=O)CC(OC(=O)C(C)C)C1(C)OC1C(C)C1CC(O)(NC(=O)O1)C(OC)/C=C/C=C(\C)C2` (stereo not drawn) [Compound 56, Maytansinol isobutyrate or 4,24-Dioxa-9,22-diazatetracyclo[19.3.1.110,14.03,5] hexacosane, maytansine deriv.] here?
Answer: 7.52%

Question: What about the “type of inhibition” value (endothelial cells) of the same molecule?
Answer: tube formation

Question: For “AVASTIN®: monoclonal antibody directed against an isoform of VEGF, marketed under the trade name Avastin®; known antiangiogenic drug, positive control”, which “inhibition of growth of SK-ML-1 (previously shown)” value (SK-ML-1 tumors [5]) is on record?
Answer: significantly inhibit

Question: And the “inhibition of growth of A549 (previously shown)” value (A549 tumors)?
Answer: significantly inhibit

Question: For `CC1(C)N=C(N)N=C(N)N1CCCCc1ccccc1.Cl` [Compound 11, 6,6-dimethyl-1-(4-phenylbutyl)-1,3,5-triazine-2,4-diamine hydrochloride], which “cytotoxicity (in words)” value (PAE cells [3]) is on record?
Answer: cytotoxic

Question: And the IC50 (PAE cells [2]; Sus scrofa, PAE cells)?
Answer: 2.37e-11 M

Question: And the cytotoxicity (in vitro)?
Answer: 18.7%

Question: For `COc1ccc(CC2C(=O)NC(C)C(=O)N(C)C3Cc4ccc(cc4)Oc4cc(ccc4O)CC(C(=O)NC(C)C(=O)NC(C)C(=O)N2C)N(C)C3=O)cc1` (stereo not drawn) [Compound 58, Deoxybouvardin or 24-hydroxy-10-(4-methoxybenzyl)-4,7,9,13,15,29-hexamethyl-22-oxa-3,6,9,12,15,29-hexaazatetracyclo-[14.12.2.2~18,21~.1~23,27~]tritriaconta-18,20,23(31),24,26,32-hexaene-2,5,8,11,14,30-hexone], which cytotoxicity (in vitro) is on record?
Answer: 11.2%

Question: What about the “type of inhibition” value (endothelial cells) of the same molecule?
Answer: tube formation

Question: What about the “inhibition of tumor growth” value (SK-ML-1 tumors [4]) of the same molecule?
Answer: potencies similar to AVASTIN®

Question: With `OC(c1cc(-c2ccc(Cl)cc2)nc2ccccc12)C1CCCCN1` (stereo not drawn) [Compound 15, [2-(4-chlorophenyl)quinolin-4-yl]-piperidin-2-ylmethanol] as the molecule, how does the IC50 (PAE cells [2]; Sus scrofa, PAE cells) read?
Answer: 6.55e-10 M

Question: What about the cytotoxicity (in vitro) of the same molecule?
Answer: 7.93%

Question: For “azidobenzene; 1H-indene; prop-1-en-2- ylbenzene [Compound 49]”, which “Apoptosis PAE (RFU)” value (PAE) is on record?
Answer: 1.235 RFU

Question: What about the Bioactivity (endothelial cells) of the same molecule?
Answer: 2

Question: Which IC50 (PAE cells [2]; Sus scrofa, PAE cells) does the source give for `Nc1nc(N)c(-c2cccc(C(F)(F)F)c2)c(Cc2cccc(C(F)(F)F)c2)n1` [Compound 28, 5-[3-(trifluoromethyl)phenyl]-6-[[3-(trifluoromethyl)phenyl]methyl] pyrimidine-2,4-diamine] here?
Answer: 7.41e-11 M

Question: What about the cytotoxicity (in vitro) of the same molecule?
Answer: 8.65%

Question: For `Cc1cc(Cc2cc(C)cc(C(C)(C)C)c2O)c(O)c(Cc2cc(C)cc(C(C)(C)C)c2O)c1` [Compound 33, 2-tert-butyl-6-[[3-[(3-tert-butyl-2-hydroxy-5-methylphenyl)methyl]-2-hydroxy-5-methylphenyl]methyl]-4-methylphenol], which IC50 (PAE cells [2]; Sus scrofa, PAE cells) is on record?
Answer: 2.8e-10 M

Question: What about the cytotoxicity (in vitro) of the same molecule?
Answer: 7.44%

Question: Which results are given for `COc1ccc(-c2csc3c2-n2cccc2C3=O)cc1` [Compound 63, 3-(4-methoxyphenyl)thieno[2,3-b]pyrrolizin-8-one]?
Answer: cytotoxicity (in words) (PAE cells [3]): without cytotoxicity; IC50 (PAE cells [2]; Sus scrofa, PAE cells): 1.55e-11 M; cytotoxicity (in vitro): 7.48%; type of inhibition (endothelial cell growth and/or tube formation) (endothelial cells; 1 μM): inhibited both endothelial cell growth and tube formation

Question: What does the source list for `O=C(c1no[n+]([O-])c1C(=O)c1csc2ccccc12)c1csc2ccccc12` [Compound 68, [4-(1-benzothiophene-3-carbonyl)-2-oxido-1,2,5-oxadiazol-2-ium-3-yl]-(1-benzothiophen-3-yl)methanone]?
Answer: cytotoxicity (in words) (PAE cells [3]): cytotoxic; IC50 (PAE cells [2]; Sus scrofa, PAE cells): 1.4e-10 M; cytotoxicity (in vitro): 19.1%

Question: What does the source list for `CN(C)CCC(=O)[C@@]1(O)CC[C@H]2[C@@H]3CC=C4C[C@@H](O)CC[C@]4(C)[C@H]3CC[C@@]21C` [Compound 27, 1-[(3S,8R,9S,10R,13S,14S,17R)-3,17-dihydroxy-10,13-dimethyl-1,2,3,4,7,8,9,11,12,14,15,16-dodecahydrocyclopenta[a]phenanthren-17-yl]-3-(dimethylamino)propan-1-one chloride]?
Answer: IC50 (PAE cells [2]; Sus scrofa, PAE cells): > 1e-06 M; cytotoxicity (in vitro): 7.9%

Question: Which results are given for `C(=N\c1ccc2c(c1)Cc1ccccc1-2)/c1ccccn1` [Compound 3, N-(9H-fluoren-2-yl)-1-pyridin-2-ylmethanimine]?
Answer: IC50 (PAE cells [2]; Sus scrofa, PAE cells): > 1e-06 M; cytotoxicity (in vitro): 9.01%

Question: Which IC50 (PAE cells [2]; Sus scrofa, PAE cells) does the source give for `CS(=O)(=O)Nc1ccc(Nc2c3ccccc3nc3ccccc23)cc1` [Compound 32, N-[4-(acridin-9-ylamino)phenyl]-methanesulfonamide; methanesulfonic acid] here?
Answer: > 1e-06 M

Question: What about the cytotoxicity (in vitro) of the same molecule?
Answer: 6.82%

From patent US9504729B2, “Antiangiogenic small molecules and methods of use” (The United States of America, as represented by the …, priority 2009, dated 2016)
